Assay results as given in US9096591B2, “Tetracyclic compounds” (Medivation Technologies, Inc., priority 2007, dated 2015).
Where two headings read alike, the source gives them in different places.

Tests used:
[1] = molecular target: T1, human recombinant histamine H1 receptor (Homo sapiens, UniProt P35367); assay: Histamine H1 radioligand binding ([3H]Pyrilamine)
T1 construct: expressed in transfected cells; host or cells: CHO cells
Procedure, shortened: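 CHO-expressed receptor in modified Tris-HCl buffer (50 mM, pH 7.4; 2 mM MgCl2, 100 mM NaCl, 250 mM sucrose); bound ligand measured after filtration and washing.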

[2] = molecular target: T2, human recombinant adrenergic α1D receptor (Homo sapiens, UniProt P25100); assay: Adrenergic α1D radioligand binding ([3H]Prozosin); design: Inhibition of ligand binding, Adren. alpha1D: concentration or dose not given beside the values; conditions: percent inhibition of specific binding
T2 construct: expressed in transfected cells; host or cells: HEK-293 cells
T2 sequence (P25100 1-572): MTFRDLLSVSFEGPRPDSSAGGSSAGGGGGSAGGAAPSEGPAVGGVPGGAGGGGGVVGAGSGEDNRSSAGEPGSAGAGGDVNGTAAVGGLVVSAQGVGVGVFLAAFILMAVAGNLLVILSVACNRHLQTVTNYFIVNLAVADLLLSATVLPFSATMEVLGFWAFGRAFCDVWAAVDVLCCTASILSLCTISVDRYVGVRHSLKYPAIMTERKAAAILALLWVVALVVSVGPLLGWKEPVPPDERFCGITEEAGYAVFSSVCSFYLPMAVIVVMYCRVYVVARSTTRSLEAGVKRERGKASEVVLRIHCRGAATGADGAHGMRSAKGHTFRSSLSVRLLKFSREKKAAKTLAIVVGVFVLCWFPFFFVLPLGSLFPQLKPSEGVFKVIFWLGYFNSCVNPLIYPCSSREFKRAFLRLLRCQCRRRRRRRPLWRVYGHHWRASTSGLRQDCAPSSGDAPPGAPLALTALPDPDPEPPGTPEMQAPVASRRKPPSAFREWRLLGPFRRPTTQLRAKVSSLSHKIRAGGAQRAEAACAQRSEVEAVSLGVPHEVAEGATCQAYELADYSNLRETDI
Experimental: Compounds of invention were incubated with 0.6 nM [^3H]Prozosin for 60 minutes at 25° C. Non-specific binding was estimated in the presence of 10 μM phentolamine. Receptor proteins were filtered and washed, the filters were then counted to determine [^3H]Prozosin specifically bound. […] Biochemical assay results are presented as the percent inhibition of specific binding in Table 6.

[3] = molecular target: T3, human recombinant dopamine D2L receptor (Homo sapiens, UniProt P14416); assay: Dopamine D2L radioligand binding ([3H]Spiperone); conditions: percent inhibition of specific binding
T3 construct: expressed in transfected cells; host or cells: CHO cells
T3 sequence (P14416 whole entry): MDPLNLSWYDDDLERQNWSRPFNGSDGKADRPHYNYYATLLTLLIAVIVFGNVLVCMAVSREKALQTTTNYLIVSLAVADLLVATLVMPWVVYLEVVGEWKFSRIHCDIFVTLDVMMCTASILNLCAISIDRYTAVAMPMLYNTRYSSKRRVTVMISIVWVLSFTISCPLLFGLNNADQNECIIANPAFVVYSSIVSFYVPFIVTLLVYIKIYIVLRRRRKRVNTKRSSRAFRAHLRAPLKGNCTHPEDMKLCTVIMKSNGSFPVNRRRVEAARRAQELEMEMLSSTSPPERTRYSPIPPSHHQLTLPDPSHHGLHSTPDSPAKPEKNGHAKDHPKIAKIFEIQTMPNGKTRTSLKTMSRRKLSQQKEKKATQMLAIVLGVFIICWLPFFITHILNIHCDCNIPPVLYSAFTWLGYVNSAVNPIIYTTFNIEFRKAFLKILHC
Experimental: Non-specific binding was estimated in the presence of 10 μM Haloperidol. Receptor proteins were filtered and washed, the filters were then counted to determine [^3H]Spiperone specifically bound. […] Biochemical assay results are presented as the percent inhibition of specific binding in Table 6.

[4] = molecular target: T4, human recombinant serotonin (5-Hydroxytryptamine) 5-HT2A receptor (Homo sapiens, UniProt P28223); assay: Serotonin 5-HT2A radioligand binding ([3H]Ketanserin); conditions: percent inhibition of specific binding
T4 construct: expressed in transfected cells; host or cells: CHO-K1 cells
T4 sequence (P28223 whole entry): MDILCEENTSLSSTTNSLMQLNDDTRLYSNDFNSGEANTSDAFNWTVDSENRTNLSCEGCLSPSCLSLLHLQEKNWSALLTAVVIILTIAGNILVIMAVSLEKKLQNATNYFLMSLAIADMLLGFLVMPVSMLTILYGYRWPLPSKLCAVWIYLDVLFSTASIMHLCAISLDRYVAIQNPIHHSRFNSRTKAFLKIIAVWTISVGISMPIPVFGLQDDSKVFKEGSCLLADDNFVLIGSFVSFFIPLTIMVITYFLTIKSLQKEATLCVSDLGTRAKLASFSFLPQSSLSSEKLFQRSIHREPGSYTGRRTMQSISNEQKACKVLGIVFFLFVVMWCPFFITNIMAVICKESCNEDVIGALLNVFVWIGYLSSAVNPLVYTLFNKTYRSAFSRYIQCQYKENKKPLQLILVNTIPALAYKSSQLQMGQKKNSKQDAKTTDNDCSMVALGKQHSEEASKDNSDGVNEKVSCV
Experimental: Compounds of the invention were incubated with 0.5 nM [^3H]Ketanserin for 60 minutes at 25° C. Non-specific binding was estimated in the presence of 1 μM Mianserin. Receptor proteins were filtered and washed, the filters were then counted to determine [^3H]Ketanserin specifically bound. […] Biochemical assay results are presented as the percent inhibition of specific binding in Table 6.

[5] = molecular target: T5, human recombinant serotonin (5-Hydroxytryptamine) 5-HT6 receptor (Homo sapiens, UniProt P50406); assay: Serotonin 5-HT6 radioligand binding ([3H]LSD); design: Inhibition of ligand binding, Ser. 5-HT6: concentration or dose not given beside the values; conditions: percent inhibition of specific binding
T5 construct: expressed in transfected cells; host or cells: human HeLa cells
T5 sequence (P50406 whole entry): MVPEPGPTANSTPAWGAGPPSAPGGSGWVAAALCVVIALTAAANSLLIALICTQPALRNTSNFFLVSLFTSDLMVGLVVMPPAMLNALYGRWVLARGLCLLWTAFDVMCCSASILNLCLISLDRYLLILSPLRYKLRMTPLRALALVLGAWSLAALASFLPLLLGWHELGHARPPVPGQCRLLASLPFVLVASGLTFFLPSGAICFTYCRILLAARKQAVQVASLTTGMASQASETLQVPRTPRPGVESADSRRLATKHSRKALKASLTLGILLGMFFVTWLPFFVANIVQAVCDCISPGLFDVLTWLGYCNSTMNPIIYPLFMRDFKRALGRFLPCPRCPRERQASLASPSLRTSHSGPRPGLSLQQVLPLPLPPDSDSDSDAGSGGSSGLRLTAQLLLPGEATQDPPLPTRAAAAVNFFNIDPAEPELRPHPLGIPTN
Excerpt: Receptor proteins were filtered and washed, the filters were then counted to determine [3H]LSD specifically bound. […] Biochemical assay results are presented as the percent inhibition of specific binding in Table 6.

[6] = molecular target: T6, human recombinant adrenergic α2B receptor (Homo sapiens, UniProt P18089); assay: Adrenergic α2B radioligand binding ([3H]Rauwolscine); design: Inhibition of ligand binding, Adren. alpha2B: concentration or dose not given beside the values; conditions: percent inhibition of specific binding
T6 construct: expressed in transfected cells; host or cells: CHO-K1 cells
T6 sequence (P18089 1-450): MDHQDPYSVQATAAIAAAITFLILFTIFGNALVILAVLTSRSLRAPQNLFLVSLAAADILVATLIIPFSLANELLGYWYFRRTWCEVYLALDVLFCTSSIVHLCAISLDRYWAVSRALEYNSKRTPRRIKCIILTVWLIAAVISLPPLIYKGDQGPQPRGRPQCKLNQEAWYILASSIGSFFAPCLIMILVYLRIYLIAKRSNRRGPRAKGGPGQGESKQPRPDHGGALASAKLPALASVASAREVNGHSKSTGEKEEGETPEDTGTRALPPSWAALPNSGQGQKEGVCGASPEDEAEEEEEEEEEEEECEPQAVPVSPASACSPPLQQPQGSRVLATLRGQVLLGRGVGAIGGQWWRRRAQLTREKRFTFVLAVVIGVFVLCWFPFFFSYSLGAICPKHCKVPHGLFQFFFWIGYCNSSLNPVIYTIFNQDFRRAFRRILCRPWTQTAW
Procedure, shortened: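 Incubation ran 60 minutes at 25 °C in modified Tris-HCl buffer (50 mM, pH 7.4, 12.5 mM MgCl2, 1 mM EDTA, 0.2% BSA) using CHO-K1-expressed human receptor.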

[7] = read-out: Histamine Binding H1, percent inhibition of specific binding
[8] = percent inhibition of specific binding, screened at 1 μM, read-out: Inhibition of ligand binding, Hist. H1

T1 sequence (P35367 whole entry): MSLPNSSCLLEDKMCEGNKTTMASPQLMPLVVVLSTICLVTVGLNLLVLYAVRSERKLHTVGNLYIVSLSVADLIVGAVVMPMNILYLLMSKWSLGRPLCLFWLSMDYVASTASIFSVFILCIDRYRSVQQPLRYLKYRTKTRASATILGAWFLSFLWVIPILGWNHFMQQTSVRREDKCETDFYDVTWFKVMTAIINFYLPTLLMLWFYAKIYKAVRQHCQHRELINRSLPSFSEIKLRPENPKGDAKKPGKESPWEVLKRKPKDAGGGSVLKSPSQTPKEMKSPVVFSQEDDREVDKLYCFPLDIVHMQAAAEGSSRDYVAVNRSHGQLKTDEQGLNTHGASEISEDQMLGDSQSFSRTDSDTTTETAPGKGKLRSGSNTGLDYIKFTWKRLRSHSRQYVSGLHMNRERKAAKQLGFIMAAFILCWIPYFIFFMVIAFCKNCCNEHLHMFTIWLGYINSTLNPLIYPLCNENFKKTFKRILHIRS

Row | Structure (SMILES) | inhibition at 0.03 µM [1, 7] | inhibition at 0.1 µM [1, 7] | inhibition at 1 µM [1, 7] | inhibition at 1 µM ([1]; read-out: Inhibition of ligand binding, Hist. H1) | Inhibition of ligand binding, Adren. alpha1D [2] | Inhibition of ligand binding, Dop. D2L [3] | Inhibition of ligand binding, Ser. 5-HT2A [4] | Inhibition of ligand binding, Ser. 5-HT6 [5] | inhibition at 1 µM [1, 8] | Inhibition of ligand binding, Adren. alpha2B [6]
1 | CN1CCc2c(c3ccccc3n2CCc2ccccc2)C1 [Compound 2, 2,3,4,5-tetrahydro-2-methyl-5-phenethyl-1H-pyrido[4,3-b]indole] | 31% | 54% | 87% | 87% | 72% | 70% | 96% | 95% | – | –
2 | CN1CCc2c(c3cc(Cl)ccc3n2CCc2cccnc2)C1 [Compound 55] | – | – | – | – | 84% | 29% | 86% | 94% | 101% | 90%
3 | CN1CCc2c(c3cc(Cl)ccc3n2CCc2ccncc2)C1 [Compound 56] | – | – | – | – | 91% | 62% | 92% | 102% | 100% | 119%
4 | Cc1ccc2c(c1)c1c(n2CCc2cccnc2)CCN(C)C1 [Compound 60] | – | – | – | – | 82% | 24% | 84% | 91% | 101% | 95%
5 | Cc1ccc2c(c1)c1c(n2CCc2cnccn2)CCN(C)C1 [Compound 62] | – | – | – | – | 51% | −3% | 85% | 83% | 93% | 90%
6 | Cc1ccc2c(c1)c1c(n2CCc2ccc(C(F)(F)F)nc2)CCN(C)C1 [Compound 68] | – | – | – | – | 98% | 29% | 98% | 88% | 99% | 111%
7 | CN1CCc2c(c3cc(Cl)ccc3n2CCN2CCCCC2)C1 [Compound 189] | – | – | – | – | 28% | 0% | – | 66% | 94% | 72%
8 | Cc1ccc2c(c1)c1c(n2CCc2ccccc2)CCN(C(=O)OCC(Cl)(Cl)Cl)C1 [Compound 227, 2,2,2-trichloroethyl 3,4-dihydro-8-methyl-5-phenethyl-1H-pyrido[4,3-b]indole-2(5H)-carboxylate] | – | – | – | – | 11% | – | −2% | 9% | -5% | 0%
9 | Cc1ccc2c(c1)c1c(n2CCc2ccccc2)CCNC1 [Compound 228, 2,3,4,5-tetrahydro-8-methyl-5-phenethyl-1H-pyrido[4,3-b]indole] | – | – | – | – | 76% | – | 77% | 89% | 81% | 101%
10 | CC(C)N1CCN(C(=O)Cn2c3c(c4cc(Cl)ccc42)CN(C)CC3)CC1 [Compound 248] | – | – | – | – | 26% | 2% | – | 67% | 85% | 75%
11 | CN1CCc2c(c3cc(F)ccc3n2CCc2ccc(Cl)cc2)C1 [Compound 249] | – | – | – | – | 65% | 64% | – | 101% | 100% | 109%
12 | Cc1ccc2c(c1)c1c(n2CC(=O)N2CCC(C)CC2)CCN(C)C1 [Compound 251] | – | – | – | – | 14% | −7% | – | 7% | 55% | 8%
13 | CN1CCc2c(c3cc(F)ccc3n2CCc2ccc(F)cc2)C1 [Compound 253] | – | – | – | – | 81% | 96% | – | 105% | 97% | 104%
14 | Cc1ccc(CCn2c3c(c4cc(C(=O)O)ccc42)CN(C)CC3)cn1 [Compound 256, 2-Methyl-5-(2-(6-methylpyridin-3-yl)ethyl)-2,3,4,5-tetrahydro-1H-pyrido[4,3-b]indole-8-carboxylic acid] | – | – | – | – | −10% | – | 2% | 2% | -1% | 4%
15 | Cc1ccc2c(c1)c1c(n2CC(=O)N2CCCC2)CCN(C)C1 [Compound 257, 2-(1,2,3,4-tetrahydro-2,8-dimethylpyrido[4,3-b]indol-5-yl)-1-(pyrrolidin-1-yl)ethanone] | – | – | – | – | 3% | −7% | – | 2% | 64% | 20%
16 | Cc1ccc2c(c1)c1c(n2CCc2ccc(C(=O)O)nc2)CCNC1 [Compound 262] | – | – | – | – | 3% | – | 6% | −4% | 81% | −2%
17 | Cc1ccc2c(c1)c1c(n2CCC(=O)N2CCC(NC(=O)OC(C)(C)C)CC2)CCN(C)C1 [Compound 393, tert-butyl 1-(3-(1,2,3,4-tetrahydro-2,8-dimethylpyrido[4,3-b]indol-5-yl)propanoyl)piperidin-4-ylcarbamate] | – | – | – | – | 16% | – | 19% | 3% | 28% | 28%
18 | Cc1ccc2c(c1)c1c(n2CCc2ccc(C)[n+]([O-])c2)CCN(C)C1 [Compound 394, 5-(2-(2,8-dimethyl-3,4-dihydro-1H-pyrido[4,3-b]indol-5(2H)-yl)ethyl)-2-methylpyridine 1-oxide] | – | – | – | – | 9% | – | 3% | 5% | 30% | 19%
